Measured values as given in US20250163066A1, “PROTACs of MALT1” (TEGID THERAPEUTICS, INC., priority 2022, published 2025).

These molecules were tested against MALT1 (Homo sapiens (Human), UniProt Q9UDY8) (assay: MALT1 enzymatic activity inhibition (fluorescence, Ac-LRSR-AMC substrate)). Conditions: recombinant MALT1 1.5 ng/μl, Ac-LRSR-AMC 1 μM.
Sequence of MALT1 (Q9UDY8 whole entry): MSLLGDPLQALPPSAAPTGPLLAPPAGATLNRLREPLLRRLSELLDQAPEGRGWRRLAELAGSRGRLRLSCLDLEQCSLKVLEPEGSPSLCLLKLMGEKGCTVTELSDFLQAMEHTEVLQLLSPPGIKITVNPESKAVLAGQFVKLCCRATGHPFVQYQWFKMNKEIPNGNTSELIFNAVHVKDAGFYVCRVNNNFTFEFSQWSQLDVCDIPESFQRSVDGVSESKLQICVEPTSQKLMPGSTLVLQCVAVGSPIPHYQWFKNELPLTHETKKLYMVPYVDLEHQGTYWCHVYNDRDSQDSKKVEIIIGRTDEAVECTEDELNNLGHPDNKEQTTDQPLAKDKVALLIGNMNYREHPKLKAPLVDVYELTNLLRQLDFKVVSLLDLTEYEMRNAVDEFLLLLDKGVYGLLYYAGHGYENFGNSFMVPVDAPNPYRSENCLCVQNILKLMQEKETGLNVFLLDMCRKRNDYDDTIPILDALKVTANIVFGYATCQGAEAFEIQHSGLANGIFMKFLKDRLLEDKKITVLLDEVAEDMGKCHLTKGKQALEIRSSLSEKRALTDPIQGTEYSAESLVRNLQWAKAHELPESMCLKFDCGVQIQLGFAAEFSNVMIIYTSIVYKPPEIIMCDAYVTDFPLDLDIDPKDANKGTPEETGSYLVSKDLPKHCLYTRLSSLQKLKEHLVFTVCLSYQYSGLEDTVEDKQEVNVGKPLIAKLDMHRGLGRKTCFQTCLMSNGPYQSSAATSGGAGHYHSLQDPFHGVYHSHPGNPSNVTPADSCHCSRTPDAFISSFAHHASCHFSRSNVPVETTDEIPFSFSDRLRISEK
Format: biochemical
How it was run: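 Recombinant human MALT1 (1.5 ng/μl final) preincubated 10 min at rt with compounds in 50 mM HEPES pH 7.2-7.4, 100 mM NaCl, 900 mM sodium citrate, 10 mM DTT; 1 μM Ac-LRSR-AMC then added. AMC fluorescence read at start and after 30 min 37 °C plus 30 min rt; difference gives signal, % inhibition fitted to IC50.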
`O=C1CCC(N2Cc3cc(N4CCN(CCCCc5nc(-c6ncc(NC(=O)Nc7cnc8ccnn8c7C7CCCC7)cc6Cl)no5)CC4)ccc3C2=O)C(=O)N1` (stereo not drawn) [Compound 75, 1-[5-chloro-6-[5-[4-[4-[2-(2,6-dioxo-3-piperidyl)-1-oxo-isoindolin-5-yl]piperazin-1-yl]butyl]-1,2,4-oxadiazol-3-yl]-3-pyridyl]-3-(7-cyclopentylpyrazolo[1,5-a]pyrimidin-6-yl)urea] gave an EC50 of at most 0.2 µM.
In the case of `O=C1CCC(N2Cc3cc(N4CCN(C(=O)CCCc5nc(-c6ncc(NC(=O)Nc7cnc8ccnn8c7C7CCCC7)cc6F)no5)CC4)ccc3C2=O)C(=O)N1` (stereo not drawn) [Compound 77, 1-(7-cyclopentylpyrazolo[1,5-a]pyrimidin-6-yl)-3-[6-[5-[4-[4-[2-(2,6-dioxo-3-piperidyl)-1-oxo-isoindolin-5-yl]piperazin-1-yl]-4-oxo-butyl]-1,2,4-oxadiazol-3-yl]-5-fluoro-3-pyridyl]urea], the EC50 is reported as at most 0.2 µM.
Molecule `O=C1CCC(N2Cc3cc(NC(=O)CCCc4nc(-c5ncc(NC(=O)Nc6cnc7ccnn7c6C6CCCC6)cc5Cl)no4)ccc3C2=O)C(=O)N1` (stereo not drawn) [Compound 80, 4-[3-[3-chloro-5-[(7-cyclopentylpyrazolo[1,5-a]pyrimidin-6-yl)carbamoylamino]-2-pyridyl]-1,2,4-oxadiazol-5-yl]-N-[2-(2,6-dioxo-3-piperidyl)-1-oxo-isoindolin-5-yl]butanamide] has an EC50 of at most 0.2 µM.
In the case of `O=C1CCC(N2Cc3cc(N4CCN(C(=O)CCCCc5nc(-c6ncc(NC(=O)Nc7cnc8ccnn8c7C7CCCC7)cc6F)no5)CC4)ccc3C2=O)C(=O)N1` (stereo not drawn) [Compound 81, 1-(7-cyclopentylpyrazolo[1,5-a]pyrimidin-6-yl)-3-[6-[5-[5-[4-[2-(2,6-dioxo-3-piperidyl)-1-oxo-isoindolin-5-yl]piperazin-1-yl]-5-oxo-pentyl]-1,2,4-oxadiazol-3-yl]-5-fluoro-3-pyridyl]urea], the EC50 is reported as 0.2 to 0.5 µM.
`Cc1cc2ncc(NC(=O)Nc3cnc(-c4noc(CCCCCCN5CCN(c6ccc7c(c6)CN(C6CCC(=O)NC6=O)C7=O)CC5)n4)c(C)c3)c(C3CCCC3)n2n1` (stereo not drawn) [Compound 83, 1-(7-cyclopentyl-2-methyl-pyrazolo[1,5-a]pyrimidin-6-yl)-3-[6-[5-[6-[4-[2-(2,6-dioxo-3-piperidyl)-1-oxo-isoindolin-5-yl]piperazin-1-yl]hexyl]-1,2,4-oxadiazol-3-yl]-5-methyl-3-pyridyl]urea] gave an EC50 of at most 0.2 µM.
Work on `Cc1cc2ncc(NC(=O)Nc3cnc(-c4noc(CCCCCN5CCN(c6ccc7c(c6)CN(C6CCC(=O)NC6=O)C7=O)CC5)n4)c(C)c3)c(C3CCCO3)n2n1` (stereo not drawn) [Compound 85, 1-[6-[5-[5-[4-[2-(2,6-dioxo-3-piperidyl)-1-oxo-isoindolin-5-yl]piperazin-1-yl]pentyl]-1,2,4-oxadiazol-3-yl]-5-methyl-3-pyridyl]-3-(2-methyl-7-tetrahydrofuran-2-yl-pyrazolo[1,5-a]pyrimidin-6-yl)urea] yielded an EC50 of at most 0.2 µM.
For `Cc1cc(-c2noc(CCCCC(=O)N3CCN(c4ccc5c(c4)CN(C4CCC(=O)NC4=O)C5=O)CC3)n2)ncc1NC(=O)Nc1cnc2ccnn2c1C1CCCC1` (stereo not drawn) [Compound 94, 1-(7-cyclopentylpyrazolo[1,5-a]pyrimidin-6-yl)-3-[6-[5-[5-[4-[2-(2,6-dioxo-3-piperidyl)-1-oxo-isoindolin-5-yl]piperazin-1-yl]-5-oxo-pentyl]-1,2,4-oxadiazol-3-yl]-4-methyl-3-pyridyl]urea], the EC50 was over 5 µM.
With `O=C1CCC(N2Cc3cc(N4CCN(CCCCCCc5nc(-c6ncc(NC(=O)Nc7cnc8ccnn8c7C7CCCC7)cc6F)no5)CC4)ccc3C2=O)C(=O)N1` (stereo not drawn) [Compound 95, 1-(7-cyclopentylpyrazolo[1,5-a]pyrimidin-6-yl)-3-[6-[5-[6-[4-[2-(2,6-dioxo-3-piperidyl)-1-oxo-isoindolin-5-yl]piperazin-1-yl]hexyl]-1,2,4-oxadiazol-3-yl]-5-fluoro-3-pyridyl]urea] the EC50 was at most 0.2 µM.
For `O=C1CCC(N2Cc3cc(N4CCN(CCCCCc5nc(-c6ncc(NC(=O)Nc7cnc8ccnn8c7C7CCCC7)cc6F)no5)CC4)ccc3C2=O)C(=O)N1` (stereo not drawn) [Compound 97, 1-(7-cyclopentylpyrazolo[1,5-a]pyrimidin-6-yl)-3-[6-[5-[5-[4-[2-(2,6-dioxo-3-piperidyl)-1-oxo-isoindolin-5-yl]piperazin-1-yl]pentyl]-1,2,4-oxadiazol-3-yl]-5-fluoro-3-pyridyl]urea], the EC50 was at most 0.2 µM.
`O=C1CCC(N2Cc3cc(N4CCN(C(=O)CCCCc5nc(-c6ncc(NC(=O)Nc7cnc8ccnn8c7C7CCCCC7)cc6Cl)no5)CC4)ccc3C2=O)C(=O)N1` (stereo not drawn) [Compound 98, 1-[5-chloro-6-[5-[5-[4-[2-(2,6-dioxo-3-piperidyl)-1-oxo-isoindolin-5-yl]piperazin-1-yl]-5-oxo-pentyl]-1,2,4-oxadiazol-3-yl]-3-pyridyl]-3-(7-cyclohexylpyrazolo[1,5-a]pyrimidin-6-yl)urea] gave an EC50 of at most 0.2 µM.
Work on `O=C1CCC(N2Cc3cc(N4CCN(CCCCCc5nc(-c6ncc(NC(=O)Nc7cnc8ccnn8c7C7CCCCC7)cc6Cl)no5)CC4)ccc3C2=O)C(=O)N1` (stereo not drawn) [Compound 99, 1-[5-chloro-6-[5-[5-[4-[2-(2,6-dioxo-3-piperidyl)-1-oxo-isoindolin-5-yl]piperazin-1-yl]pentyl]-1,2,4-oxadiazol-3-yl]-3-pyridyl]-3-(7-cyclohexylpyrazolo[1,5-a]pyrimidin-6-yl)urea] yielded an EC50 of at most 0.2 µM.
`Cc1cc(NC(=O)Nc2cnc3ccnn3c2C2CCCC2)cnc1-c1noc(CCCCC(=O)Nc2cccc(C3CCC(=O)NC3=O)c2)n1` (stereo not drawn) [Compound 100, 5-[3-[5-[(7-cyclopentylpyrazolo[1,5-a]pyrimidin-6-yl)carbamoylamino]-3-methyl-2-pyridyl]-1,2,4-oxadiazol-5-yl]-N-[3-(2,6-dioxo-3-piperidyl)phenyl]pentanamide] was tested, and the EC50 was 0.2 to 0.5 µM.
`Cc1cc(NC(=O)Nc2cnc3ccnn3c2C2CCCC2)cnc1-c1noc(CCCCC(=O)Nc2ccc(C3CCC(=O)NC3=O)cc2)n1` (stereo not drawn) [Compound 101, 5-[3-[5-[(7-cyclopentylpyrazolo[1,5-a]pyrimidin-6-yl)carbamoylamino]-3-methyl-2-pyridyl]-1,2,4-oxadiazol-5-yl]-N-[4-(2,6-dioxo-3-piperidyl)phenyl]pentanamide] was tested, and the EC50 was 0.2 to 0.5 µM.
For `Cc1cc(NC(=O)Nc2cnc3ccnn3c2C2CCCC2)cnc1-c1noc(CCCCCC(=O)N2CCN(c3ccc4c(c3)CN(C3CCC(=O)N(COC(=O)C(C)(C)C)C3=O)C4=O)CC2)n1` (stereo not drawn) [Compound 102, [3-[5-[4-[6-[3-[5-[(7-cyclopentylpyrazolo[1,5-a]pyrimidin-6-yl)carbamoylamino]-3-methyl-2-pyridyl]-1,2,4-oxadiazol-5-yl]hexanoyl]piperazin-1-yl]-1-oxo-isoindolin-2-yl]-2,6-dioxo-1-piperidyl]methyl 2,2-dimethylpropanoate], the EC50 was at most 0.2 µM.
`CCCCOP(=O)(OCCCC)OCN1C(=O)CCC(N2Cc3cc(N4CCN(C(=O)CCCCCc5nc(-c6ncc(NC(=O)Nc7cnc8ccnn8c7C7CCCC7)cc6Cl)no5)CC4)ccc3C2=O)C1=O` (stereo not drawn) [Compound 103, dibutyl [3-[5-[4-[6-[3-[3-chloro-5-[(7-cyclopentylpyrazolo[1,5-a]pyrimidin-6-yl)carbamoylamino]-2-pyridyl]-1,2,4-oxadiazol-5-yl]hexanoyl]piperazin-1-yl]-1-oxo-isoindolin-2-yl]-2,6-dioxo-1-piperidyl]methyl phosphate] gave an EC50 of over 5 µM.
With `O=C1CCC(N2Cc3cc(N4CCN(CCCCc5nc(-c6ncc(NC(=O)Nc7cnc8ccnn8c7C7CCCC7)cc6F)no5)CC4)ccc3C2=O)C(=O)N1` (stereo not drawn) [Compound 105, 1-(7-cyclopentylpyrazolo[1,5-a]pyrimidin-6-yl)-3-[6-[5-[4-[4-[2-(2,6-dioxo-3-piperidyl)-1-oxo-isoindolin-5-yl]piperazin-1-yl]butyl]-1,2,4-oxadiazol-3-yl]-5-fluoro-3-pyridyl]urea] the EC50 was 0.2 to 0.5 µM.
For `Cc1cc(NC(=O)Nc2cnc3ccnn3c2C2CCC2)cnc1-c1noc(CCCCCC(=O)N2CCN(c3ccc4c(c3)CN(C3CCC(=O)NC3=O)C4=O)CC2)n1` (stereo not drawn) [Compound 114, 1-(7-cyclobutylpyrazolo[1,5-a]pyrimidin-6-yl)-3-[6-[5-[6-[4-[2-(2,6-dioxo-3-piperidyl)-1-oxo-isoindolin-5-yl]piperazin-1-yl]-6-oxo-hexyl]-1,2,4-oxadiazol-3-yl]-5-methyl-3-pyridyl]urea], the EC50 was at most 0.2 µM.
Molecule `Cc1cc(NC(=O)Nc2cnc3ccnn3c2C2CCC2)cnc1-c1noc(CCCCCCN2CCN(c3ccc4c(c3)CN(C3CCC(=O)NC3=O)C4=O)CC2)n1` (stereo not drawn) [Compound 115, 1-(7-cyclobutylpyrazolo[1,5-a]pyrimidin-6-yl)-3-[6-[5-[6-[4-[2-(2,6-dioxo-3-piperidyl)-1-oxo-isoindolin-5-yl]piperazin-1-yl]hexyl]-1,2,4-oxadiazol-3-yl]-5-methyl-3-pyridyl]urea] has an EC50 of at most 0.2 µM.
Work on `Cc1cc(NC(=O)Nc2cnc3ccnn3c2C2CCCCC2)cnc1-c1noc(CCCCC(=O)Nc2ccc3c(c2)CN(C2CCC(=O)NC2=O)C3=O)n1` (stereo not drawn) [Compound 125, 5-[3-[5-[(7-cyclohexylpyrazolo[1,5-a]pyrimidin-6-yl)carbamoylamino]-3-methyl-2-pyridyl]-1,2,4-oxadiazol-5-yl]-N-[2-(2,6-dioxo-3-piperidyl)-1-oxo-isoindolin-5-yl]pentanamide] yielded an EC50 of 0.5 to 1 µM.
For `Cc1cc(NC(=O)Nc2cnc3ccnn3c2C2CCCCC2)cnc1-c1noc(CCCC(=O)N2CCN(c3ccc4c(c3)CN(C3CCC(=O)NC3=O)C4=O)CC2)n1` (stereo not drawn) [Compound 126, 1-(7-cyclohexylpyrazolo[1,5-a]pyrimidin-6-yl)-3-[6-[5-[4-[4-[2-(2,6-dioxo-3-piperidyl)-1-oxo-isoindolin-5-yl]piperazin-1-yl]-4-oxo-butyl]-1,2,4-oxadiazol-3-yl]-5-methyl-3-pyridyl]urea], the EC50 was 0.5 to 1 µM.
`Cc1cc(NC(=O)Nc2cnc3ccnn3c2C(C)(C)C)cnc1-c1noc(CCCCC(=O)N2CCN(c3ccc4c(c3)CN(C3CCC(=O)NC3=O)C4=O)CC2)n1` (stereo not drawn) [Compound 127, 1-(7-tert-butylpyrazolo[1,5-a]pyrimidin-6-yl)-3-[6-[5-[5-[4-[2-(2,6-dioxo-3-piperidyl)-1-oxo-isoindolin-5-yl]piperazin-1-yl]-5-oxo-pentyl]-1,2,4-oxadiazol-3-yl]-5-methyl-3-pyridyl]urea] gave an EC50 of 1 to 5 µM.
